Experimental data: patent US11135224B2, “Methods of sensitizing estrogen receptor positive (ER+) breast cancer cells to endocrine therapy” (New York University, priority 2018, dated 2021)

How the values were obtained:
[1] = test system: eIF4E phosphorylation (MNK1); experiment: Immunoblot of eIF4E phosphorylation, CGP57380 dose escalation in TamS and TamR cells; format: cell-based, human; conditions: escalating doses, 2 hours
Protocol: Endogenous eIF4E was silenced by shRNA. Cell proliferation was assayed by MTT assay with cells treated with DMSO vehicle or 1 μM 4-OHT. Results are from three independent experiments. […] Endogenous eIF4E was silenced by shRNA. Cell proliferation was assayed by MTT assay using conditions described above for FIG. 4. Results from three independent experiments are shown. FIG. 6C is an immunoblot of TamS and TamR cells treated with escalating doses of CGP57380 (GCP) for 2 hours and lysed in NP-40 buffer; equal protein amounts were probed for P-eIF4E, total eIF4E, and β-actin (loading control). […] Cells were treated with DMSO, 1 μM 4-OHT, or 4-OHT and MNK1 inhibitor CGP. […]
Immunoblot Studies: In brief, cells were lysed in NP-40 buffer (50 mM HEPES, pH 7.0, 150 mM NaCl, 2 mM EDTA, 25 mM NaF, 25 mM β-glycerophosphate, 2 mM Na3VO4, 1% IGEPAL, and Complete Mini protease inhibitor cocktail tablet+/−EDTA; Roche) or RIPA lysis buffer (1% Triton X-100, 1% sodium deoxycholate, 0.1% SDS, 150 mM NaCl, 50 mM Tris, pH 7.4, 2 mM Na3VO4, 25 mM β-glycerophosphate, 15 mM NaF, and complete protease inhibitor mix; Roche) and lysate cleared by centrifugation at 13,000 rpm for 10 minutes at 4° C. Lysate protein concentration was determined for each sample using BCA assay. […] Quantitation was performed by determination of the integrated density of the bands using ImageJ software. […]

Runx2 mRNA = Runx2 mRNA levels (RT-qPCR) after CGP57380; format: cell-based, human; conditions: treated vs untreated cells
Protocol: Quantitative Real-Time PCR (RT-qPCR) and Analysis: RNA was extracted using Trizol as per the manufacturer's instructions. One microgram of RNA was used for reverse transcription reaction using Promega GoScript, as per the manufacturer's instructions. qRT-PCR was completed using iTaq Universal 2× SYBR Green qPCR master mix (Bio-Rad) and an Applied Biosystems 7500 Fast RT-PCR machine as per the manufacturers' instructions. Fold change was calculated using the 2^−ΔΔCt method.
The biological functions of mRNAs identified as highly eIF4E-dependent in tamoxifen-resistant cells were next assessed. Of these, Runx2 was particularly notable because it encodes a protein with a number of activities that could play a role in tamoxifen resistance, as it is an important inhibitor of estrogen signaling and stimulates oncogenic pathways. […] It was also determined whether Runx2 mRNA requires eIF4E S209 phosphorylation by Mnk1. Cells were untreated or treated with CGP57380, and Runx2 mRNA and protein levels were determined.

SMILES: Nc1ncnc2n[nH]c(Nc3ccc(F)cc3)c12 [CGP57380]
- concentration for complete inhibition of eIF4E phosphorylation [1]: 10 µM
- Runx2 mRNA levels (Runx2 mRNA): no statistically significant difference
